# Earlier results in patent US10874615B2, “Formulation having controlled, delayed release of active ingredient” (Merck Patent GmbH, priority 2015, dated 2020).
# Settings: after oral administration; first-pass metabolism
smiles,measurement,value
CC(C)NCC(O)COc1cccc2ccccc12 (stereo not shown) [propranolol],bioavailability,25-30%
